The values below come from article PMC10780413, “Flavonoid Metabolites in Serum and Urine after the Ingestion of Selected Tropical Fruits” (Nutrients, 2024).

One series has as its system xanthine oxidase. Also on record: method as in PMID 11118813. The following applies: cited from earlier work.
Series [1] is classed as in vivo, human. To be noted: after guava, pineapple, pomelo.
Method: Participants maintained a low-flavonoid diet (e.g., diet without vegetables, fruits, or chocolate) for two days and fasted for 8 h before the study to avoid any contribution from other foods containing flavonoids. Servings of fresh fruits of 200 g were given to the participants followed by 200 mL water. Beverages containing alcohol and caffeine were prohibited during the test period. Venous blood samples were collected before and 2, 4, 6, and 8 h after fruit ingestion. Serum was immediately prepared using centrifugation 233× g at 4 °C for 15 min, 200 mM ascorbic acid was added, and the samples were then stored at −20 °C until the analysis (within two weeks). Urine samples were collected at intervals of 0–4, 4–6, 6–8, 8–12, and 12–24 h in plastic bottles containing 70 mg of ascorbic acid per 100 mL of urine. The volume of urine sample was measured and then centrifuged at 233× g to remove the precipitate. […]
Flavonoid analysis was measured by a modified method of Biessaga [15] and Mullen et al. [16]. […]
Series [2] can be described thus: Bioavailability estimated from total urinary excretion and flavonoid content in fruits. It is filed as in vivo. To be noted: human, 200 g, 200 g edible part, fruit content from ref 10, read-out: Estimated bioavailability (total urinary amount as % of content in fruit). The method, then:
Hollman et al. reported the bioavailability of quercetin from apples and pure quercetin-3-rutinose was only 30% compared to onions. Here, we assumed the flavonoids recovering in urine had passed the blood compartment. […] In the two-hundred grams of edible part, guava and pineapple contained about 6900 μg and 850 μg of quercetin, respectively. The total amount of urinary quercetin accounted for 13% and 80% of the quercetin content in the respective fruits. […] It should be noted that, the bioavailability of flavonoids may be underestimated because the biliary excretion of flavonoids was not taken into account. Moreover, the urinary methyl-conjugated favonoids were not quantified in this study.

The conditions of series [3]: plasma; cited from earlier work.
Details of series [4]: method as in PMID 25212140. To be noted: after ingestion of rooibos tea; cited from earlier work.
Details of series [5]: method as in PMID 11361045. The following applies: cited from earlier work.
For series [6] the following is noted: cited from earlier work.
The nature of series [7]: Serum concentration of flavonoid metabolites after ingestion of 200 g fresh fruit (LC-MS/MS after enzyme hydrolysis). It counts as in vivo, human. The following applies: despite presence in the selected fruits. The text has this:
Three groups of six healthy subjects (male and female) between 20 and 30 years of age, with a body mass index between 18 and 25, were recruited for this study. Each group of participant received one kind of fruit. They were not alcohol drinkers, smokers, drug users, nor pregnant. They had not taken any medications for at least one month prior to the experiment. All participants underwent health checks for their hematological and biochemical profiles. There was no clinical presentation of gastrointestinal diseases (peptic ulcer), kidney diseases, liver diseases or jaundice, heart diseases, asthma, or diabetes mellitus. Levels of blood glucose before and 4 h after fruit ingestion were monitored in all subjects. […]
Participants maintained a low-flavonoid diet (e.g., diet without vegetables, fruits, or chocolate) for two days and fasted for 8 h before the study to avoid any contribution from other foods containing flavonoids. […] The volume of urine sample was measured and then centrifuged at 233× g to remove the precipitate. […]
The conjugated metabolites of flavonoids, glucuronic acid, and sulfate conjugates were determined in the serum and urine after hydrolyzing with β-glucuronidase (EC 3.2.1.31, bovine liver type B-I, Sigma, St Louis, MO, USA) and aryl sulfatase (EC 3.1.6.1, Merk, Darmstadt, Germany), respectively, at 37 °C for 16 h. […]

On the set-up of series [8]: method as in PMID 14709621. The following applies: in vitro study; cited from earlier work.
The subject of series [9] is LPS-induced pulmonary injury. Also on record: method as in PMID 37335159. The following applies: in vitro and in vivo models; cited from earlier work.

Where two headings read alike, the source gives them in different places.

On to `O=C(O)[C@H]1O[C@@H](Oc2cc(-c3oc4cc(O)cc(O)c4c(=O)c3O)ccc2O)[C@H](O)[C@@H](O)[C@@H]1O` [3′-quercetin glucuronide], for which, in the series with xanthine oxidase, the “Inhibitory effect on xanthine oxidase” value is given as “potent inhibitory effect”.
Regarding `O=C(O)[C@H]1O[C@@H](Oc2ccc(-c3oc4cc(O)cc(O)c4c(=O)c3O)cc2O)[C@H](O)[C@@H](O)[C@@H]1O` [4′-quercetin glucuronide], the “Inhibitory effect on xanthine oxidase” value in the series on xanthine oxidase is recorded as “potent inhibitory effect”.
As a reminder, the bioavailability is dose-corrected exposure relative to a reference, in per cent. Regarding `O=c1c(O)c(-c2ccc(O)cc2)oc2cc(O)cc(O)c12` [Kaempferol, kaempferol], the “Conjugated forms recovered in urine” value in [1] is “found in both conjugated metabolites”. The bioavailability is 10% in [2] (urine, oral, from pineapple) and 1% in series [2] (urine, oral, from pomelo). Moreover, in series [3], the “Share that is glucuronide in the 3′-position” value (“Share that is glucuronide” for short) is on record as 20–40%.
By Tmax is commonly meant the time at which the peak concentration occurs. For `O=c1cc(-c2ccc(O)c(O)c2)oc2cc(O)cc(O)c12` [Luteolin, luteolin], the bioavailability in series [2] (urine, oral, from guava) was 5%; in [2] (urine, oral, from pomelo), 5%. In addition, the Tmax in [4] is 1.5 to 3 h.
With `O=c1c(O)c(-c2cc(O)c(O)c(O)c2)oc2cc(O)cc(O)c12` [Myricetin, myricetin], the “Conjugated forms recovered in urine” value in [1] was “only detected in sulfate form”. In addition, the bioavailability in series [2] (in vivo, from guava) was 5%; in [2] (in vivo, from pineapple) it was 10%. Moreover, the “Share that is glucuronide” value in series [3] was 20–40%.
Regarding `O=c1c(O)c(-c2ccc(O)c(O)c2)oc2cc(O)cc(O)c12` [Quercetin, quercetin], in [1], the “Conjugated forms recovered in urine” value is given as “found in both conjugated metabolites”. The bioavailability was 13% in series [2] (urine, oral, from guava) and 80% in [2] (urine, oral, from pineapple). Moreover, the Tmax of quercetin is listed as 4.3 h in [5] (after ingesting buckwheat tea), 6.9 h in series [5] (after ingesting quercetin-3-rutioside), 0.7 h in series [5] (after single ingestion of onion) and 0.7 h in series [5] (after single ingestion of quercetin-4’-glucoside). The “Bioavailability of quercetin compared to onions” value in series [6] (from apples) is reported as 30%. Further, the “Share that is glucuronide” value in series [3] is on record as 20–40%.
On to `O=c1cc(-c2ccc(O)cc2)oc2cc(O)cc(O)c12` [apigenin], for which the “Detection in serum or urine after fruit ingestion” value in series [7] is recorded as “did not detect”. The “Phase I metabolism, major metabolite” value in [8] is listed as “forms luteolin as a major metabolite”.
As to `COc1ccc([C@@H]2CC(=O)c3c(O)cc(O)cc3O2)cc1O` [hesperetin], the “Detection in serum or urine after fruit ingestion” value in [7] is “did not detect”.
For `O=C(O)[C@H]1O[C@@H](Oc2c(-c3ccc(O)c(O)c3)oc3cc(O)cc(O)c3c2=O)[C@H](O)[C@@H](O)[C@@H]1O` [quercetin-3-glucuronide], in the series with xanthine oxidase, the “Inhibitory effect on xanthine oxidase” value is “not active”. In addition, in [9], the “Activity in LPS-induced pulmonary injury” value was “exerted antioxidant and anti-inflammatory activity”.
Turning to `C[C@@H]1O[C@@H](OC[C@H]2O[C@@H](Oc3c(-c4ccc(O)c(O)c4)oc4cc(O)cc(O)c4c3=O)[C@H](O)[C@@H](O)[C@@H]2O)[C@H](O)[C@H](O)[C@H]1O` [quercetin-3-rutinose, reference compound], the “Bioavailability of quercetin compared to onions” value in [6] (in vivo) was 30%.
